“And” between values parts separate entries of the source, which are not always exact repeats. Equal values may be shown once.
O=C(C(F)(F)C(F)(F)F)C(F)(C(F)(F)F)C(F)(F)F [dodecafluoro-2-methylpentan-3-one]
Conditions | thermal conductivity
432.7 K, 49519 kPa, Liquid, transient hot wire | 0.06451 W/m/K
432.71 K, 656 kPa, Gas, hot wire | 0.02379 W/m/K
432.72 K, 1422 kPa, Gas, transient hot wire | 0.02498 W/m/K
432.72 K, 49517 kPa, Liquid, transient hot wire | 0.06454 W/m/K
432.77 K, 1418 kPa, Gas, transient hot wire | 0.02496 W/m/K
432.77 K, 1419 kPa, Gas, transient hot wire | 0.02504 W/m/K
432.79 K, 1709 kPa, Liquid, transient hot wire | 0.03809 W/m/K
432.79 K, 34245 kPa, Liquid, transient hot wire | 0.05883 W/m/K
432.8 K, 1709 kPa, Liquid, transient hot wire | 0.03764 W/m/K
432.8 K, 1977 kPa, Liquid, transient hot wire | 0.03806 W/m/K
432.81 K, 652 kPa, Gas, hot wire | 0.02381 W/m/K
432.81 K, 655 kPa, Gas, hot wire | 0.02367 W/m/K
432.81 K, 1704 kPa, Liquid, transient hot wire | 0.03807 W/m/K
432.81 K, 1706 kPa, Liquid, transient hot wire | 0.03761 W/m/K
432.81 K, 1977 kPa, Liquid, transient hot wire | 0.03794 W/m/K
432.81 K, 22767 kPa, Liquid, transient hot wire | 0.05368 W/m/K
432.82 K, 375 kPa, Gas, hot wire | 0.02254 W/m/K
432.83 K, 376 kPa, Gas, hot wire | 0.02257 W/m/K
432.83 K, 22777 kPa, Liquid, transient hot wire | 0.05369 W/m/K
432.84 K, 2631 kPa, Liquid, transient hot wire | 0.03896 W/m/K
432.84 K, 49496 kPa, Liquid, transient hot wire | 0.06439 W/m/K
432.84 K, 49505 kPa, Liquid, transient hot wire | 0.06438 W/m/K
432.86 K, 2631 kPa, Liquid, transient hot wire | 0.03897 W/m/K
432.87 K, 158 kPa, Gas, hot wire | 0.02102 W/m/K
432.87 K, 159 kPa, Gas, hot wire | 0.02111 W/m/K
432.87 K, 3941 kPa, Liquid, transient hot wire | 0.04063 W/m/K
432.88 K, 1297 kPa, Gas, transient hot wire | 0.02344 W/m/K
432.88 K, 1298 kPa, Gas, transient hot wire | 0.02358 W/m/K
432.88 K, 1418 kPa, Gas, transient hot wire | 0.02521 W/m/K
432.9 K, 43 kPa, Gas, hot wire | 0.02081 W/m/K
432.9 K, 650 kPa, Gas, hot wire | 0.02367 W/m/K
432.91 K, 42 kPa, Gas, hot wire | 0.02089 W/m/K
432.93 K, 374 kPa, Gas, hot wire | 0.02268 W/m/K
432.93 K, 375 kPa, Gas, hot wire | 0.02269 W/m/K
432.93 K, 1976 kPa, Liquid, transient hot wire | 0.03821 W/m/K
432.93 K, 34232 kPa, Liquid, transient hot wire | 0.05866 W/m/K
432.93 K, 34243 kPa, Liquid, transient hot wire | 0.05865 W/m/K
432.94 K, 1977 kPa, Liquid, transient hot wire | 0.03807 W/m/K
432.95 K, 1709 kPa, Liquid, transient hot wire | 0.03814 W/m/K
432.98 K, 22754 kPa, Liquid, transient hot wire | 0.05357 W/m/K
432.98 K, 49470 kPa, Liquid, transient hot wire | 0.06431 W/m/K
432.99 K, 157 kPa, Gas, hot wire | 0.02107 W/m/K and 0.02099 W/m/K
432.99 K, 1298 kPa, Gas, transient hot wire | 0.02366 W/m/K
433 K, 1299 kPa, Gas, transient hot wire | 0.02363 W/m/K
433 K, 6150 kPa, Liquid, transient hot wire | 0.04309 W/m/K
433 K, 15091 kPa, Liquid, transient hot wire | 0.04962 W/m/K
433 K, 15095 kPa, Liquid, transient hot wire | 0.04957 W/m/K
433.01 K, 43 kPa, Gas, hot wire | 0.02102 W/m/K and 0.02104 W/m/K
433.02 K, 647 kPa, Gas, hot wire | 0.02339 W/m/K
433.02 K, 648 kPa, Gas, hot wire | 0.02337 W/m/K
433.02 K, 6152 kPa, Liquid, transient hot wire | 0.04303 W/m/K
433.03 K, 3941 kPa, Liquid, transient hot wire | 0.04082 W/m/K
433.04 K, 373 kPa, Gas, hot wire | 0.02274 W/m/K
433.04 K, 2629 kPa, Liquid, transient hot wire | 0.03906 W/m/K
433.04 K, 2631 kPa, Liquid, transient hot wire | 0.03946 W/m/K
433.05 K, 372 kPa, Gas, hot wire | 0.02268 W/m/K
433.05 K, 3942 kPa, Liquid, transient hot wire | 0.04075 W/m/K
433.08 K, 34226 kPa, Liquid, transient hot wire | 0.05871 W/m/K
433.08 K, 34233 kPa, Liquid, transient hot wire | 0.05874 W/m/K
433.11 K, 155 kPa, Gas, hot wire | 0.02111 W/m/K
433.12 K, 156 kPa, Gas, hot wire | 0.02101 W/m/K
433.12 K, 646 kPa, Gas, hot wire | 0.02323 W/m/K
433.12 K, 9670 kPa, Liquid, transient hot wire | 0.04595 W/m/K
433.12 K, 9671 kPa, Liquid, transient hot wire | 0.04584 W/m/K
433.12 K, 49466 kPa, Liquid, transient hot wire | 0.06434 W/m/K
433.13 K, 43 kPa, Gas, hot wire | 0.02102 W/m/K
433.13 K, 644 kPa, Gas, hot wire | 0.02306 W/m/K
433.13 K, 22732 kPa, Liquid, transient hot wire | 0.05371 W/m/K
433.13 K, 22752 kPa, Liquid, transient hot wire | 0.05367 W/m/K
433.13 K, 49459 kPa, Liquid, transient hot wire | 0.06442 W/m/K
433.14 K, 43 kPa, Gas, hot wire | 0.02099 W/m/K
433.14 K, 1300 kPa, Gas, transient hot wire | 0.02391 W/m/K
433.16 K, 372 kPa, Gas, hot wire | 0.02272 W/m/K and 0.02276 W/m/K
433.16 K, 15084 kPa, Liquid, transient hot wire | 0.04944 W/m/K
433.19 K, 6155 kPa, Liquid, transient hot wire | 0.04297 W/m/K
433.19 K, 6159 kPa, Liquid, transient hot wire | 0.04336 W/m/K
433.19 K, 15094 kPa, Liquid, transient hot wire | 0.04947 W/m/K
433.21 K, 1138 kPa, Gas, transient hot wire | 0.02265 W/m/K and 0.02278 W/m/K
433.24 K, 155 kPa, Gas, hot wire | 0.02111 W/m/K
433.24 K, 1299 kPa, Gas, transient hot wire | 0.02422 W/m/K
433.24 K, 3943 kPa, Liquid, transient hot wire | 0.04078 W/m/K
433.24 K, 3944 kPa, Liquid, transient hot wire | 0.04039 W/m/K
433.24 K, 34207 kPa, Liquid, transient hot wire | 0.05868 W/m/K
433.24 K, 34211 kPa, Liquid, transient hot wire | 0.05857 W/m/K
